What was measured:
human OCT2 [1] = biological target: T1, human OCT2 (Homo sapiens, UniProt O15244); experiment: hOCT2 substrate; format: in vitro ADME; conditions: 1 μM PFAS screen
T1 sequence (O15244 1-555): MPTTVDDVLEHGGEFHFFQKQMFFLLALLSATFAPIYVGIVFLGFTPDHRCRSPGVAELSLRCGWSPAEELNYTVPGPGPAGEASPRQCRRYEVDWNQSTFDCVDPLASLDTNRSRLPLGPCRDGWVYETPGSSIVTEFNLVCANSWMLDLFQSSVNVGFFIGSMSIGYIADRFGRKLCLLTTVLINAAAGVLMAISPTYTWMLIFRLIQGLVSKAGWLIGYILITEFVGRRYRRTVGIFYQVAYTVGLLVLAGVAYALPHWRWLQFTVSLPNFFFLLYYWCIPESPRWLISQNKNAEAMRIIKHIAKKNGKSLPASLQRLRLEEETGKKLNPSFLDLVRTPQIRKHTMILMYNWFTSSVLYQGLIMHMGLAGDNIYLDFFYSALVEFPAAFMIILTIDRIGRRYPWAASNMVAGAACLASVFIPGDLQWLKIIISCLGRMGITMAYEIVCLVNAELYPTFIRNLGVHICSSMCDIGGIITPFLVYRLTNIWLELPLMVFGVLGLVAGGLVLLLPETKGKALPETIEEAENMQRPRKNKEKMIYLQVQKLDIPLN

human OAT3 [2] = biological target: T2, human OAT3 (Homo sapiens, UniProt Q8TCC7); experiment: OAT3 inhibition assay
T2 sequence (Q8TCC7 1-542): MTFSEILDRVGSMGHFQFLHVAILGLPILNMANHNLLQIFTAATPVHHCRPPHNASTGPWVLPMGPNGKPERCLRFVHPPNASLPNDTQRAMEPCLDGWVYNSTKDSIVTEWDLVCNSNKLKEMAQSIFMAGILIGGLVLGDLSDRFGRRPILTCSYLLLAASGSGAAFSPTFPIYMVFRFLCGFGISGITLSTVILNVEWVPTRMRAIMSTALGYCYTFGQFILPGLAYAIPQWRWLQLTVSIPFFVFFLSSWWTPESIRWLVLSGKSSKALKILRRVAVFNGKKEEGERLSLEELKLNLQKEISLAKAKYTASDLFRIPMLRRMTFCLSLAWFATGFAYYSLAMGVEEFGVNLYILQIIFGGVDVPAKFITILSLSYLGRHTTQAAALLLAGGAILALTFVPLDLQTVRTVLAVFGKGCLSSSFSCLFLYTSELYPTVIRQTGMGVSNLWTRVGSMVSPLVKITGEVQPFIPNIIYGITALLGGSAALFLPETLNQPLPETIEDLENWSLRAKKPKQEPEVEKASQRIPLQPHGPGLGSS

human OAT1 [3] = biological target: T3, human OAT1 (Homo sapiens, UniProt Q4U2R8); experiment: OAT1 inhibition assay
T3 sequence (Q4U2R8 1-563): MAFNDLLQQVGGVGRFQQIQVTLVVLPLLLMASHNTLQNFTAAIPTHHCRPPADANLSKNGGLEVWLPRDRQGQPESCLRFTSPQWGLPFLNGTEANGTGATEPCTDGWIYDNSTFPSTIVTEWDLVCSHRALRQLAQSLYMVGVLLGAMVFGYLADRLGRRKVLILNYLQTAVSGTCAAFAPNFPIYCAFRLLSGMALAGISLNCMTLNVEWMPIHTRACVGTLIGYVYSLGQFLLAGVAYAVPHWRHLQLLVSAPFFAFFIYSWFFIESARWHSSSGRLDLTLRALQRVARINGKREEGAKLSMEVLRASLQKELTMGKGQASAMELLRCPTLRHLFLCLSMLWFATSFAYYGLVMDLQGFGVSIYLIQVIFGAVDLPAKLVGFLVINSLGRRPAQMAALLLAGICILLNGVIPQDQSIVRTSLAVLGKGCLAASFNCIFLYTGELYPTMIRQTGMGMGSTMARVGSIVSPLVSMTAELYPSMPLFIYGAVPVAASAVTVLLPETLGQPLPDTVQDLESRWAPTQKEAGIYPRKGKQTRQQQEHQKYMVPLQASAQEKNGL

human OAT4 = biological target: T4, human OAT4 (Homo sapiens, UniProt Q9NSA0); experiment: hOAT4 substrate; format: in vitro ADME
T4 sequence (Q9NSA0 1-550): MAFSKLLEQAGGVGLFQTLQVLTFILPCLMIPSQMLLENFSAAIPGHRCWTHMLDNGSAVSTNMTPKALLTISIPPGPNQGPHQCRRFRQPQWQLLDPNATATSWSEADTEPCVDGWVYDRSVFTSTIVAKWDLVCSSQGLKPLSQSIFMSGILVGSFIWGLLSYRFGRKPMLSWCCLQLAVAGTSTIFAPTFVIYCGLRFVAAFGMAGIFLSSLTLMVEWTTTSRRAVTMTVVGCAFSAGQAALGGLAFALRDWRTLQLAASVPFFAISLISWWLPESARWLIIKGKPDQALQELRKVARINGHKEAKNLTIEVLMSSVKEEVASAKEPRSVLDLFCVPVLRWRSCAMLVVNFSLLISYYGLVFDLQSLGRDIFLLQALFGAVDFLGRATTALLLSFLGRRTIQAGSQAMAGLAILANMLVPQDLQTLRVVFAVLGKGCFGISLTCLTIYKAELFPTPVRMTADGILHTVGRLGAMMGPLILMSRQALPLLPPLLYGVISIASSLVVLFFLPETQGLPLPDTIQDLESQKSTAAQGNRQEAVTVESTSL

[4] = PFHpA versus PFUDA; ref Zhang et al. (2013); cited from earlier work
human OAT1 [5] = biological target: T3, human OAT1; experiment: hOAT1 substrate; conditions: 1 μM PFAS screen
human OAT3 [6] = biological target: T2, human OAT3; experiment: hOAT3 substrate
human OCT2 [7] = biological target: T1, human OCT2; experiment: OCT2 inhibition assay; format: cell-based
[8] = Physicochemical parameters
[9] = test system: MDCKII-LE cell monolayers; conditions: MDCK
in vitro = conditions: dog, MDCK, pH 7.4

O=C(O)C(F)(F)C(F)(F)C(F)(F)C(F)(F)C(F)(F)C(F)(F)C(F)(F)C(F)(F)C(F)(F)C(F)(F)C(F)(F)F [PFDoDA, perfluorododecanoic acid]
hOCT2 uptake ratio, % higher than mock transfectant controls (human OCT2 [1]): ~ 10% | Some level of inhibition against hOAT3 mediated transport (human OAT3 [2]): the only exceptions | Some level of inhibition against hOAT1 mediated transport (human OAT1 [3]): the only exceptions

O=C(O)C(F)(F)C(F)(F)C(F)(F)C(F)(F)C(F)(F)C(F)(F)F [PFHpA, perfluoroheptanoic acid]
OAT4 substrate classification (human OAT4): strong substrates | hOAT4 uptake ratio, % above controls (human OAT4; 1 μM PFAS screen): ~ 20% | Transporter Uptake Ratio OAT4 (human OAT4; 1 μM PFAS, threshold ≥ 2-fold): + (denoted with a “+” to denote a threshold of ≥ 2-fold has been met and considered a substrate for the transporter) | Effect of probenecid co-treatment on hOAT4-mediated uptake (human OAT4; probenecid 1 mM): effectively inhibited | human renal clearance rate, fold higher than PFUDA [4]: ~ 10 fold | IC50 (human OAT3 [2]): 10.2 µM | IC50 (human OAT1 [3]): 51.4 to 166 µM | hOAT1 uptake ratio, % higher than controls (human OAT1 [5]): 5–60% | hOAT3 uptake ratio, fold higher than mock transfected controls (human OAT3 [6]; 1 μM PFAS screen): 2.5–12 fold | Transporter Uptake Ratio OAT3 (human OAT3 [6]; 1 μM PFAS, threshold ≥ 2-fold): + (denoted with a “+” to denote a threshold of ≥ 2-fold has been met and considered a substrate for the transporter) | hOAT3-mediated uptake, fold (human OAT3 [6]; follow-up test, without probenecid): 2.5–15 fold | Effect of probenecid cotreatment on hOAT3-mediated uptake (human OAT3 [6]; probenecid 1 mM): markedly inhibited

NS(=O)(=O)C(F)(F)C(F)(F)C(F)(F)C(F)(F)C(F)(F)C(F)(F)C(F)(F)C(F)(F)F [PFOSA, perfluorooctanesulfonamide]
hOCT2 uptake ratio, % higher than mock transfectant controls (human OCT2 [1]): ~ 10% | IC50 (human OCT2 [7]): 245 µM | neutral fraction at pH 7.4 [8]: ~ 6% | Papp at pH 6.5 relative to pH 7.4, times higher [9]: ~ 2 times | Ph 7.4 A-B Papp ([9]; dog, 90 min, 2 μM, pH 7.4): 41.4 ×10⁻⁶ cm/s | Papp A→B at 90 min, 2 μM (in vitro): 41.4 ×10⁻⁶ cm/s | IC50 (human OAT3 [2]): 21.1 to 123 µM

— article PMC11774580 (Chemosphere, 2024)
